# pIC50: −log10 of the molar value.
# Target: T1, hAhR (Homo sapiens, UniProt P35869)
# T1 construct: Stably integrated DRE-luciferase cell lines were generated by transducing the both cell lines with Cignal XRE luciferase reporter (Qiagen) lentiviral particles; endogenous in cells
# T1 sequence (P35869 11-848): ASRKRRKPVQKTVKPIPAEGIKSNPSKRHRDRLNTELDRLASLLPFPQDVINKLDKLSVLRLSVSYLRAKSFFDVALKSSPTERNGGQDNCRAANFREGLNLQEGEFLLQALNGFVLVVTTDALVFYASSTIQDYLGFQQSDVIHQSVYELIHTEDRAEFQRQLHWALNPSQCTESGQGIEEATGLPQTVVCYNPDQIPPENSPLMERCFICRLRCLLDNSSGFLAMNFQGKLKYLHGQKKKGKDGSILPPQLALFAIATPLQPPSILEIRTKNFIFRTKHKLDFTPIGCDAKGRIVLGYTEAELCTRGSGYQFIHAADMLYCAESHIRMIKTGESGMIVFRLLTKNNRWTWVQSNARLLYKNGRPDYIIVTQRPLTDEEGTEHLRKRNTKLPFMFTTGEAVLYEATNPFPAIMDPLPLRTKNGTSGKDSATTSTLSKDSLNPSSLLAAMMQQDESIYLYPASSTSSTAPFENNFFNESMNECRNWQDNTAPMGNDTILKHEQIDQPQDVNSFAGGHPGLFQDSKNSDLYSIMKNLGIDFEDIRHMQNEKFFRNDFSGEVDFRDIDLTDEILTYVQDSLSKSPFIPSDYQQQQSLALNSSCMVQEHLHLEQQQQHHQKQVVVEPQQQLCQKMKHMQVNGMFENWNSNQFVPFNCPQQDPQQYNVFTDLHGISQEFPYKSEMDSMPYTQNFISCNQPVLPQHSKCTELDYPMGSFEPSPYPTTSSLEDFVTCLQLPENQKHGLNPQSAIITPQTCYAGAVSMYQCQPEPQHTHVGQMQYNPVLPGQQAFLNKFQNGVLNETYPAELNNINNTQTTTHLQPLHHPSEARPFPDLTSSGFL
# Assay: AhR DRE-luciferase reporter transcriptional assay, antagonist mode (TCDD-induced)
# Format: cell-based
# Conditions: HEPG2 DRE-Luc cells, 3 nM TCDD, 24 hour incubation, relative IC50
# Procedure: HEPG2 and HEPA1C1C7 cells were maintained in MEM and αMEM without nucleosides supplemented with 10% heat inactivated FBS respectively. Stably integrated DRE-luciferase cell lines were generated by transducing the both cell lines with Cignal XRE luciferase reporter (Qiagen) lentiviral particles according to the manufacturer protocol. For both cell lines stably integrated reporter cell lines were selected for the presence of 2 µg/mL puromycin. Following selection of stably integrated cell line pools, clonal cell lines were isolated by limiting dilution in 96-well plates. Transcriptional assays were performed by seeding 100 μL of cells at a density of 250,000 or 100,000 cells/mL, for HEPG2 and HEPA1C1C7 DRE-Luc cells respectively, into 96-well cell culture plates in OptiMEM supplemented with 0.5% heat inactivated FBS and allowed to attach overnight. For modulator assays, the compounds were added in a semi-log dose response using a D300e Digital Dispenser (Tecan) followed normalization with vehicle (DMSO). Immediately following compound addition 10 μL of 2,3,7,8-Tetrachlorodibenzo-p-dioxin (TCDD) was added to the cells to a final concentration of 3 nM or 0.3 nM for the HEPG2 and HEPA1C1C7 DRE-Luc cells respectively. Following 24 hour incubation the medium was removed and the cells were lysed in 25 μL of Reporter Lysis Buffer (Promega). Firefly luciferase activity was measured immediately following the addition of 50 μL Luciferase Assay Reagent (Promega). The percent maximal activity for each point was determined using the following equasion: (RLUsample-RLUvehicle−TCDD)/(RLUvehicle+TCDD RLUvehicle−TCDD)*100. The relative IC50, defined as the compound concentration required to reduce the TCDD induced response between the top and bottom plateau of each individual dose response curve by half, for each compound was determined using Prism 7 (GraphPad Software).
row,Structure (SMILES),pIC50
1,"Cn1nccc1C(=O)Nc1ccc(-c2ccc3cc(F)ccc3n2)cc1F [Example 066, N-(2-fluoro-4-(6-fluoroquinolin-2-yl)phenyl)-1-methyl-1H-pyrazole-5-carboxamide]",6.00 to 6.30
2,"Cc1cc(-c2ccc3nc(C(F)(F)F)ccc3n2)ccc1N(C)C(=O)c1ccnn1CCO [Example 210, 1-(2-hydroxyethyl)-N-methyl-N-(2-methyl-4-(6-(trifluoromethyl)-1,5-naphthyridin-2-yl)phenyl)-1H-pyrazole-5-carboxamide]",> 6.70
3,"Cc1cc(-c2ncc3cc(C(F)(F)F)ccc3n2)ccc1NC(=O)c1ncccc1C [Example 117, 3-methyl-N-(2-methyl-4-(6-(trifluoromethyl)quinazolin-2-yl)phenyl)picolinamide]",6.00 to 6.30
4,"Cc1cc(-c2ccc3cc(F)ccc3n2)ccc1NC(=O)c1ccccn1 [Example 026, N-(4-(6-fluoroquinolin-2-yl)-2-methylphenyl)picolinamide]",6.00 to 6.30
5,"Cc1cc(NC(=O)c2ccnn2C)cnc1-c1ccc2cc(F)ccc2n1 [Example 046, N-(6-(6-fluoroquinolin-2-yl)-5-methylpyridin-3-yl)-1-methyl-1H-pyrazole-5-carboxamide]",6.00 to 6.30
6,"Cc1cc(-c2ccc3cc(OC(F)(F)F)ccc3n2)ccc1NC(=O)c1ccnn1C [Example 011, 1-methyl-N-(2-methyl-4-(6-(trifluoromethoxy)quinolin-2-yl)phenyl)-1H-pyrazole-5-carboxamide]",6.30 to 6.70
7,"Cc1cc(-c2ncc3cc(C(F)(F)F)ccc3n2)ccc1NC(=O)c1ncncc1C [Example 123, 5-methyl-N-(2-methyl-4-(6-(trifluoromethyl)quinazolin-2-yl)phenyl)pyrimidine-4-carboxamide]",6.00 to 6.30
8,"[2H]C([2H])([2H])N(C(=O)c1ccnn1C)c1ccc(-c2ccc3cc(C(F)(F)F)ccc3n2)cc1C [Example 212, 1-methyl-N-(methyl-d3)-N-(2-methyl-4-(6-(trifluoromethyl)quinolin-2-yl)phenyl)-1H-pyrazole-5-carboxamide]",> 6.70
9,"Cn1nccc1C(=O)Nc1ccc(-c2ccc3cc(F)ccc3n2)cc1C(F)(F)F [Example 048, N-(4-(6-fluoroquinolin-2-yl)-2-(trifluoromethyl)phenyl)-1-methyl-1H-pyrazole-5-carboxamide]",5.00 to 6.00
10,"Cc1cc(C(=O)N(C)c2ccc(-c3ncc4cc(C(F)(F)F)ccc4n3)cc2C)c(C)cn1 [Example 126, N,2,5-trimethyl-N-(2-methyl-4-(6-(trifluoromethyl)quinazolin-2-yl)phenyl)isonicotinamide]",> 6.70
11,"Cc1cc(-c2ncc3nc(C(F)(F)F)cc(C)c3n2)ccc1N(C)C(=O)c1ccnn1CC(C)O (stereo not shown) [Example 192, 1-(2-hydroxypropyl)-N-methyl-N-(2-methyl-4-(8-methyl-6-(trifluoromethyl)pyrido[3,2-d]pyrimidin-2-yl)phenyl)-1H-pyrazole-5-carboxamide]",> 6.70
12,"Cc1cc(-c2ncc3cc(C(F)(F)F)ccc3n2)ccc1N(C)C(=O)c1ccnn1C [Example 140, N,1-Dimethyl-N-(2-methyl-4-(6-(trifluoromethyl)quinazolin-2-yl)phenyl)-1H-pyrazole-5-carboxamide]",> 6.70
13,"Cc1cc(-c2ncc3cc(F)ccc3n2)ccc1NC(=O)c1ccnn1C [Example 107, N-(4-(6-fluoroquinazolin-2-yl)-2-methylphenyl)-1-methyl-1H-pyrazole-5-carboxamide]",> 6.70
14,"Cc1cc(-c2ccc3cc(F)ccc3n2)ccc1NC(=O)c1ncco1 [Example 039, N-(4-(6-fluoroquinolin-2-yl)-2-methylphenyl)oxazole-2-carboxamide]",6.00 to 6.30
15,"CN(C(=O)c1ccnn1C)c1ccc(-c2ncc3nc(C(F)(F)F)ccc3n2)cc1F [Example 138, N-(2-fluoro-4-(6-(trifluoromethyl)pyrido[3,2-d]pyrimidin-2-yl)phenyl)-N,1-dimethyl-1H-pyrazole-5-carboxamide]",> 6.70
16,"Cc1cc(-c2ncc3cc(C(F)(F)F)ccc3n2)ccc1NC(=O)c1ccnn1C [Example 112, 1-methyl-N-(2-methyl-4-(6-(trifluoromethyl)quinazolin-2-yl)phenyl)-1H-pyrazole-5-carboxamide]",> 6.70
17,"Cc1cc(-c2ncc3cc(C(F)(F)F)ccc3n2)ccc1N(C)C(=O)c1cc(C(N)=O)nn1C [Example 222, N5,1-dimethyl-N5-(2-methyl-4-(6-(trifluoromethyl)quinazolin-2-yl)phenyl)-1H-pyrazole-3,5-dicarboxamide]",> 6.70

# The remaining lines, values ahead:
row,pIC50,Structure (SMILES)
1,> 6.70,"CNC(=O)N(C)c1ccc(-c2ncc3cc(C(F)(F)F)ccc3n2)cc1C [Example 127, 1,3-dimethyl-1-(2-methyl-4-(6-(trifluoromethyl)quinazolin-2-yl)phenyl)urea]"
2,> 6.70,"Cc1cc(-c2ncc3nc(C(F)(F)F)cc(C)c3n2)ccc1N(C)C(=O)c1ccnn1C [Example 148, N,1-Dimethyl-N-(2-methyl-4-(8-methyl-6-(trifluoromethyl)pyrido[3,2-d]pyrimidin-2-yl)phenyl)-1H-pyrazole-5-carboxamide]"
3,6.30 to 6.70,"Cc1cc(NC(=O)c2c(C)cnn2C)c(F)cc1-c1ccc2cc(C(F)(F)F)ccc2n1 [Example 207, N-(2-fluoro-5-methyl-4-(6-(trifluoromethyl)quinolin-2-yl)phenyl)-1,4-dimethyl-1H-pyrazole-5-carboxamide]"
4,5.00 to 6.00,"Cc1cc(-c2ccc3c(ccn3CC(F)(F)F)n2)ccc1NC(=O)c1ccnn1C [Example 084, 1-methyl-N-(2-methyl-4-(1-(2,2,2-trifluoroethyl)-1H-pyrrolo[3,2-b]pyridin-5-yl)phenyl)-1H-pyrazole-5-carboxamide]"
5,> 6.70,"Cc1cc(-c2ncc3cc(C(F)(F)F)cc(C)c3n2)ccc1NC(=O)c1ccnn1C [Example 110, 1-methyl-N-(2-methyl-4-(8-methyl-6-(trifluoromethyl)quinazolin-2-yl)phenyl)-1H-pyrazole-5-carboxamide]"
6,> 6.70,"Cc1cc(-c2ncc3nc(C(F)(F)F)cc(C)c3n2)ccc1N(C)C(=O)c1ccnn1CCO [Example 173, 1-(2-hydroxyethyl)-N-methyl-N-(2-methyl-4-(8-methyl-6-(trifluoromethyl)-pyrido[3,2-d]pyrimidin-2-yl)phenyl)-1H-pyrazole-5-carboxamide]"
7,> 6.70,"Cc1cc(-c2nc(N)c3nc(C(F)(F)F)cc(C)c3n2)ccc1NC(=O)c1ccnn1C [Example 153, N-(4-(4-amino-8-methyl-6-(trifluoromethyl)pyrido[3,2-d]pyrimidin-2-yl)-2-methylphenyl)-1-methyl-1H-pyrazole-5-carboxamide]"
8,6.30 to 6.70,"Cc1c(-c2ncc3cc(C(F)(F)F)ccc3n2)ccc(NC(=O)c2ccnn2C)c1F [Example 113, N-(2-fluoro-3-methyl-4-(6-(trifluoromethyl)quinazolin-2-yl)phenyl)-1-methyl-1H-pyrazole-5-carboxamide]"
9,> 6.70,"Cc1cc(-c2ccc3cc(C(F)(F)F)ccc3n2)cc(F)c1NC(=O)c1ccnn1C [Example 008, N-(2-fluoro-6-methyl-4-(6-(trifluoromethyl)quinolin-2-yl)phenyl)-1-methyl-1H-pyrazole-5-carboxamide]"
10,5.00 to 6.00,"Cc1nc(-c2ccc3cc(F)ccc3n2)ccc1NC(=O)c1ccnn1C [Example 045, N-(6-(6-fluoroquinolin-2-yl)-2-methylpyridin-3-yl)-1-methyl-1H-pyrazole-5-carboxamide]"
11,6.30 to 6.70,"Cc1cc(-c2ncc3cc(C(F)(F)F)ccc3n2)ccc1N(C)C(=O)c1cnc[nH]1 [Example 131, N-methyl-N-(2-methyl-4-(6-(trifluoromethyl)quinazolin-2-yl)phenyl)-1H-imidazole-5-carboxamide]"
